This is an account of results in US3993765A, “1-Propyl-triazolyl antimycotic compositions and methods of treating mycoses” (Bayer Aktiengesellschaft, priority 1973, dated 1976).

The test system of one test is Penicillium commune. In words: Antimycotic activity in vitro (series dilution test), Penicillium commune. The test is classed as cell-based. The settings on record: growth no longer detectable, Sabourauds' milieu d'epreuve, 28° C, 24 to 96 hours, read-out: Minimum inhibitory concentration.
In the next test the test system is Candida albicans. Briefly: Antimycotic activity in vitro (series dilution test), Candida albicans. The test is classed as cell-based. To be noted: growth no longer detectable, Sabourauds' milieu d'epreuve, 28° C, 24 to 96 hours, read-out: Minimum inhibitory concentration.
Test [1] relates to Trichophyton mentagrophytes. In words: Antimycotic activity in vitro (series dilution test), Trichophyton mentagrophytes. The test is classed as cell-based. The settings on record: growth no longer detectable, Sabourauds' milieu d'epreuve, 28° C, 24 to 96 hours, read-out: Minimum inhibitory concentration.
A further test concerns Candida. Briefly: Action in candidosis of mice. The test is classed as in vivo. The settings on record: mice SPF-CF1; 100 mg/kg orally one hour before and seven hours after i.v. infection; survivors on 6th day. Here is the method: b. Candidosis of mice Mice of type SPF-CF1 were infected intravenously with 1-2 × 10^6 of logarithmically growing Candida cells which were suspended in physiological sodium chloride solution. One hour before and seven hours after the infection, the animals were treated orally, in each case with 100 mg of the preparations/kg of body weight. Untreated animals died of the infection 3 to 6 days after the infection. The survival rate on the 6th day after infection was about 5% in the case of untreated control animals.

≈ marks a conversion by molar mass, not a printed value. A value given as a limit tells only on which side of the number the result lay.

As for `CC(C)(C)C(O)C(Cn1cncn1)Oc1cccc(Cl)c1` (stereo not drawn), the MIC (in the test on Penicillium commune; in the test on Candida albicans; in test [1]) was over 64 µg/mL throughout. On to `CC(C)(C)C(O)C(Cn1cncn1)Oc1ccc(Cl)cc1Cl` (stereo not drawn), for which the MIC with Penicillium commune is over 64 µg/mL; in test [1], 4 µg/mL (≈ 11.6 µM). Regarding `Cc1cccc(OC(Cn2cncn2)C(O)C(C)(C)C)c1C` (stereo not drawn), the MIC in the test on Penicillium commune and with Candida albicans was 64 µg/mL (≈ 211 µM) each time. For `CC(C)(C)C(O)C(Cn1cncn1)Oc1ccc(F)cc1` (stereo not drawn), the MIC (in the test with Penicillium commune; in test [1]) was 64 µg/mL (≈ 218 µM) each time. For the compound `CC(C)(C)C(O)C(Cn1cncn1)Oc1ccccc1Cl` (stereo not drawn) [Example 4], the “Action in candidosis of mice” value in the test with Candida was “++++ (good action = 80% survivors on the 6th day after infection)”. Same read-out and setting: next, `CC(C)(C)C(O)C(Cn1cncn1)Oc1cc(Cl)ccc1Cl` (stereo not drawn) [Example 7]: “++++ (good action = 80% survivors on the 6th day after infection)”.

For `CC(C)(C)C(O)C(Cn1cncn1)Oc1ccccc1Cl` (stereo not drawn) [drawing 4], the MIC in the test with Penicillium commune is over 64 µg/mL; in test [1] it was 32 µg/mL (≈ 103 µM). The corresponding values for `CC(C)(C)C(O)C(Cn1cncn1)Oc1cc(Cl)ccc1Cl` (stereo not drawn) [drawing 6] are over 64 µg/mL and 32 µg/mL (≈ 93 µM).
